Data: the NIST ThermoML archive (doi:10.1021/je050277k)

O=C1CCCCCN1 [1-aza-2-cycloheptanone]
Conditions | vapor or sublimation pressure [kPa]
293.43 K, Crystal, Calculated from knudsen effusion weight loss | 0.000153
298.39 K, Crystal, Calculated from knudsen effusion weight loss | 0.000275
302.3 K, Crystal, Transpiration method | 0.00043
303.32 K, Crystal, Calculated from knudsen effusion weight loss | 0.000474
305.4 K, Crystal, Transpiration method | 0.00066
306.2 K, Crystal, Transpiration method | 0.0007
308.31 K, Crystal, Calculated from knudsen effusion weight loss | 0.000813
308.38 K, Crystal, Calculated from knudsen effusion weight loss | 0.000858
309.2 K, Crystal, Transpiration method | 0.00093
312.2 K, Crystal, Transpiration method | 0.00127
313.22 K, Crystal, Calculated from knudsen effusion weight loss | 0.00143
314.7 K, Crystal, Transpiration method | 0.00175
316.7 K, Crystal, Transpiration method | 0.0021
318.09 K, Crystal, Calculated from knudsen effusion weight loss | 0.00235
321.1 K, Crystal, Transpiration method | 0.00327
321.3 K, Crystal, Transpiration method | 0.00365
322.98 K, Crystal, Calculated from knudsen effusion weight loss | 0.00393
323.06 K, Crystal, Calculated from knudsen effusion weight loss | 0.00379
323.9 K, Crystal, Transpiration method | 0.00427
326.3 K, Crystal, Transpiration method | 0.00568
327.93 K, Crystal, Calculated from knudsen effusion weight loss | 0.00636
328 K, Crystal, Calculated from knudsen effusion weight loss | 0.0061
328.3 K, Crystal, Transpiration method | 0.00668
330.2 K, Crystal, Transpiration method | 0.00801
332.89 K, Crystal, Calculated from knudsen effusion weight loss | 0.01
332.93 K, Crystal, Calculated from knudsen effusion weight loss | 0.0105
333.2 K, Crystal, Transpiration method | 0.01064
336.3 K, Crystal, Transpiration method | 0.01422
337.4 K, Crystal, Transpiration method | 0.01727
337.82 K, Crystal, Calculated from knudsen effusion weight loss | 0.0155
339 K, Crystal, Transpiration method | 0.01833
345.2 K, Liquid, Transpiration method | 0.0319
345.8 K, Liquid, Transpiration method | 0.0322
347.8 K, Liquid, Transpiration method | 0.0376
350.9 K, Liquid, Transpiration method | 0.0457
353.9 K, Liquid, Transpiration method | 0.0564
355.4 K, Liquid, Transpiration method | 0.0612
357 K, Liquid, Transpiration method | 0.071
359.1 K, Liquid, Transpiration method | 0.0758
360.2 K, Liquid, Transpiration method | 0.089
362.1 K, Liquid, Transpiration method | 0.0992
363.1 K, Liquid, Transpiration method | 0.103
364.9 K, Liquid, Transpiration method | 0.1189
366.3 K, Liquid, Transpiration method | 0.1294
369.7 K, Liquid, Transpiration method | 0.16
372.2 K, Liquid, Transpiration method | 0.1866
